Where two headings read alike, the source gives them in different places.
What was measured:
Experiment in all cases: Test D pre-/postemergence plant response
Type in all cases: in vivo
[1] = system: giant foxtail (Setaria faberii); details: Setaria faberi; for pest or weed control at 125 g/ha: 125 g ai/ha
Outline: (§1)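 Visual rating, 0–100 scale (0 = no effect, 100 = complete control), versus untreated controls 13 to 15 days after treatment in greenhouse. Preemergence: seeds in loam/sand soil. Postemergence: 2 to 18 cm plants, 1- to 4-leaf stage, peat-based medium. Compounds formulated in non-phytotoxic solvent plus surfactant.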

[2] = system: waterhemp (common waterhemp, Amaranthus rudis); details: Amaranthus tuberculatus; for pest or weed control at 31 g/ha: 31 g ai/ha; for pest or weed control at 62 g/ha: 62 g ai/ha; for pest or weed control at 125 g/ha: 125 g ai/ha
Outline: as §1

[3] = system: large (Lg) crabgrass (Digitaria sanguinalis); details: Digitaria sanguinalis; for pest or weed control at 16 g/ha: 16 g ai/ha; for pest or weed control at 31 g/ha: 31 g ai/ha; for pest or weed control at 62 g/ha: 62 g ai/ha; for pest or weed control at 125 g/ha: 125 g ai/ha
Outline: as §1

[4] = system: barnyardgrass (Echinochloa crus-galli); details: Echinochloa crus-galli; for pest or weed control at 16 g/ha: 16 g ai/ha; for pest or weed control at 31 g/ha: 31 g ai/ha; for pest or weed control at 62 g/ha: 62 g ai/ha; for pest or weed control at 125 g/ha: 125 g ai/ha
Outline: as §1

[5] = system: yellow nutsedge (Cyperus esculentus); details: Cyperus; for pest or weed control at 31 g/ha: 31 g ai/ha; for pest or weed control at 62 g/ha: 62 g ai/ha; for pest or weed control at 125 g/ha: 125 g ai/ha
Outline: as §1

[6] = system: johnsongrass (Sorghum halepense); details: Sorghum halepense; for pest or weed control at 31 g/ha: 31 g ai/ha; for pest or weed control at 62 g/ha: 62 g ai/ha; for pest or weed control at 125 g/ha: 125 g ai/ha
Outline: as §1

soybean (Glycine max) = details: Glycine max; for plant injury at 31 g/ha: 31 g ai/ha; for plant injury at 62 g/ha: 62 g ai/ha; for plant injury at 125 g/ha: 125 g ai/ha
Outline: as §1

[7] = post-emergence, Postemergence, scale 0 to 100, 0 no effect, 100 complete control, read-out: Plant response rating, Waterhemp
[8] = pre-emergence, Preemergence, scale 0 to 100 (0 no effect, 100 complete control), read-out: Plant response rating, Waterhemp
[9] = post-emergence, Postemergence, scale 0 to 100 (0 no effect, 100 complete control), read-out: Crabgrass, Large plant response rating
[10] = post-emergence, Postemergence, scale 0 to 100, 0 no effect, 100 complete control, read-out: Plant response rating, Crabgrass, Large
[11] = pre-emergence, Preemergence, scale 0 to 100 (0 no effect, 100 complete control), read-out: Plant response rating, Crabgrass, Large
[12] = post-emergence, Postemergence, scale 0 to 100 (0 no effect, 100 complete control), read-out: Barnyardgrass plant response rating
[13] = post-emergence, Postemergence, scale 0 to 100, 0 no effect, 100 complete control, read-out: Plant response rating, Barnyardgrass
[14] = pre-emergence, Preemergence, scale 0 to 100 (0 no effect, 100 complete control), read-out: Plant response rating, Barnyardgrass
[15] = post-emergence, Postemergence, scale 0 to 100, 0 no effect, 100 complete control, read-out: Plant response rating, Nutsedge, Yellow
[16] = pre-emergence, Preemergence, scale 0 to 100 (0 no effect, 100 complete control), read-out: Plant response rating, Nutsedge, Yellow
[17] = post-emergence, Postemergence, scale 0 to 100, 0 no effect, 100 complete control, read-out: Plant response rating, Johnsongrass
[18] = pre-emergence, Preemergence, scale 0 to 100 (0 no effect, 100 complete control), read-out: Plant response rating, Johnsongrass
[19] = post-emergence, Postemergence, scale 0 to 100, 0 no effect, 100 complete control, read-out: Plant response rating, Soybean
[20] = pre-emergence, Preemergence, scale 0 to 100 (0 no effect, 100 complete control), read-out: Plant response rating, Soybean

In the case of `Fc1cccc(Oc2ncc(Cl)cn2)c1-c1cc(C(F)(F)F)on1` [Compound 168, 5-chloro-2-[2-[5-(trifluoromethyl)-3-isoxazolyl]-3-fluorophenoxy]pyrimidine], the pest or weed control at 125 g/ha ([1]; post-emergence, Postemergence, scale 0 to 100, 0 no effect, 100 complete control, read-out: Plant response rating, Foxtail, Giant) is reported as 60%, the pest or weed control at 125 g/ha ([1]; pre-emergence, Preemergence, read-out: Plant response rating (scale 0 to 100), Foxtail, Giant) is reported as 100% and the pest or weed control at 16 g/ha ([1]; pre-emergence, Preemergence, 16 g ai/ha, scale 0 to 100 (0 no effect, 100 complete control), read-out: Plant response rating, Foxtail, Giant) is reported as 100%. The pest or weed control at 31 g/ha ([1]; pre-emergence, Preemergence, 31 g ai/ha, scale 0 to 100 (0 no effect, 100 complete control), read-out: Plant response rating, Foxtail, Giant) was 100%, the pest or weed control at 62 g/ha ([1]; pre-emergence, Preemergence, 62 g ai/ha, scale 0 to 100 (0 no effect, 100 complete control), read-out: Plant response rating, Foxtail, Giant) was 100% and the pest or weed control at 31 g/ha ([2]; post-emergence, Postemergence, scale 0 to 100 (0 no effect, 100 complete control), read-out: Waterhemp plant response rating) was 90%. It also gave a pest or weed control at 62 g/ha [2, 7] of 98%, a pest or weed control at 125 g/ha [2, 7] of 98% and a pest or weed control at 125 g/ha ([2]; pre-emergence, Preemergence, read-out: Plant response rating (scale 0 to 100), Waterhemp) of 100%. It also gave a pest or weed control at 16 g/ha ([2]; pre-emergence, Preemergence, 16 g ai/ha, scale 0 to 100 (0 no effect, 100 complete control), read-out: Plant response rating, Waterhemp) of 100%, a pest or weed control at 31 g/ha [2, 8] of 100% and a pest or weed control at 62 g/ha [2, 8] of 100%. It also gave a pest or weed control at 16 g/ha [3, 9] of 5%, a pest or weed control at 31 g/ha [3, 9] of 5% and a pest or weed control at 62 g/ha [3, 10] of 15%. It also gave a pest or weed control at 125 g/ha [3, 10] of 40%, a pest or weed control at 125 g/ha ([3]; pre-emergence, Preemergence, read-out: Plant response rating (scale 0 to 100), Crabgrass, Large) of 100% and a pest or weed control at 16 g/ha [3, 11] of 100%. The pest or weed control at 31 g/ha [3, 11] was 100%, the pest or weed control at 62 g/ha [3, 11] was 100% and the pest or weed control at 16 g/ha [4, 12] was 5%. The pest or weed control at 31 g/ha [4, 12] was 5%, the pest or weed control at 62 g/ha [4, 13] was 10% and the pest or weed control at 125 g/ha [4, 13] was 75%. It also gave a pest or weed control at 125 g/ha ([4]; pre-emergence, Preemergence, read-out: Plant response rating (scale 0 to 100), Barnyardgrass) of 100%, a pest or weed control at 16 g/ha [4, 14] of 35% and a pest or weed control at 31 g/ha [4, 14] of 75%. The pest or weed control at 62 g/ha [4, 14] was 100%, the pest or weed control at 31 g/ha ([5]; post-emergence, Postemergence, scale 0 to 100 (0 no effect, 100 complete control), read-out: Nutsedge, Yellow plant response rating) was 5% and the pest or weed control at 62 g/ha [5, 15] was 10%. The pest or weed control at 125 g/ha [5, 15] was 15%, the pest or weed control at 125 g/ha ([5]; pre-emergence, Preemergence, read-out: Plant response rating (scale 0 to 100), Nutsedge, Yellow) was 45% and the pest or weed control at 16 g/ha ([5]; pre-emergence, Preemergence, 16 g ai/ha, scale 0 to 100 (0 no effect, 100 complete control), read-out: Plant response rating, Nutsedge, Yellow) was 5%. It also gave a pest or weed control at 31 g/ha [5, 16] of 5%, a pest or weed control at 62 g/ha [5, 16] of 15% and a pest or weed control at 31 g/ha ([6]; post-emergence, Postemergence, scale 0 to 100 (0 no effect, 100 complete control), read-out: Johnsongrass plant response rating) of 5%. It also gave a pest or weed control at 62 g/ha [6, 17] of 5%, a pest or weed control at 125 g/ha [6, 17] of 20% and a pest or weed control at 125 g/ha ([6]; pre-emergence, Preemergence, read-out: Plant response rating (scale 0 to 100), Johnsongrass) of 100%. The pest or weed control at 16 g/ha ([6]; pre-emergence, Preemergence, 16 g ai/ha, scale 0 to 100 (0 no effect, 100 complete control), read-out: Plant response rating, Johnsongrass) was 35%, the pest or weed control at 31 g/ha [6, 18] was 95% and the pest or weed control at 62 g/ha [6, 18] was 85%. The plant injury at 31 g/ha (soybean (Glycine max); post-emergence, Postemergence, scale 0 to 100 (0 no effect, 100 complete control), read-out: Soybean plant response rating) was 75%, the plant injury at 62 g/ha (soybean (Glycine max); [19]) was 40% and the plant injury at 125 g/ha (soybean (Glycine max); [19]) was 90%. For the same compound, the plant injury at 125 g/ha (soybean (Glycine max); pre-emergence, Preemergence, read-out: Plant response rating (scale 0 to 100), Soybean) was 85%, the plant injury at 16 g/ha (soybean (Glycine max); pre-emergence, Preemergence, 16 g ai/ha, scale 0 to 100 (0 no effect, 100 complete control), read-out: Plant response rating, Soybean) was 5% and the plant injury at 31 g/ha (soybean (Glycine max); [20]) was 30%. The plant injury at 62 g/ha (soybean (Glycine max); [20]) was 55%.

Source: patent US10131652B2, “Pyrimidinyloxy benzene derivatives as herbicides” (E. I. DU PONT DE NEMOURS AND COMPANY, priority 2014, dated 2018)
